Measured values from patent publication US20040176285A1, “Tip39 polypeptides” (priority 2001, published 2004).

How the values were obtained:
PTH1R [1] = biological target: T1, PTH1R (Homo sapiens, UniProt Q03431); details: cited from earlier work
T1 sequence (Q03431 27-593): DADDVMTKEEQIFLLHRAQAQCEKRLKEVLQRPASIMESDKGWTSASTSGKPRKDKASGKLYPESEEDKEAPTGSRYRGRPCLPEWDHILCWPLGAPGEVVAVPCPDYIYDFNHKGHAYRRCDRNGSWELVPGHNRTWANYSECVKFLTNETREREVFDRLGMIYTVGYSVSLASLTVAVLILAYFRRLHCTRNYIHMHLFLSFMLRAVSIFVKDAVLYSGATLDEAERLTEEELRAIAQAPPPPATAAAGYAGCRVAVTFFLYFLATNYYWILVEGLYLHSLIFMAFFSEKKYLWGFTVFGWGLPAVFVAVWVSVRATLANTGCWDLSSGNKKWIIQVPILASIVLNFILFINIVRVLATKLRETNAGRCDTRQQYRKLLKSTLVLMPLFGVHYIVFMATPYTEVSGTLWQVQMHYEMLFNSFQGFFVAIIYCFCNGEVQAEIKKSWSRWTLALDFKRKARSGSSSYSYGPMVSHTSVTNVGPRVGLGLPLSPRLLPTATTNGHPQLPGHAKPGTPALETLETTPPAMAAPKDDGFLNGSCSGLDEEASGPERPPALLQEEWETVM

PTH1R [2] = biological target: T1, PTH1R; details: cited from earlier work; remark: listed apart in the source
[3] = biological target: T2, human PTH/PTHrP receptor (PTH1R) (human, UniProt Q03431 27-593); test: cell-based or functional assay
T2 sequence (looked up): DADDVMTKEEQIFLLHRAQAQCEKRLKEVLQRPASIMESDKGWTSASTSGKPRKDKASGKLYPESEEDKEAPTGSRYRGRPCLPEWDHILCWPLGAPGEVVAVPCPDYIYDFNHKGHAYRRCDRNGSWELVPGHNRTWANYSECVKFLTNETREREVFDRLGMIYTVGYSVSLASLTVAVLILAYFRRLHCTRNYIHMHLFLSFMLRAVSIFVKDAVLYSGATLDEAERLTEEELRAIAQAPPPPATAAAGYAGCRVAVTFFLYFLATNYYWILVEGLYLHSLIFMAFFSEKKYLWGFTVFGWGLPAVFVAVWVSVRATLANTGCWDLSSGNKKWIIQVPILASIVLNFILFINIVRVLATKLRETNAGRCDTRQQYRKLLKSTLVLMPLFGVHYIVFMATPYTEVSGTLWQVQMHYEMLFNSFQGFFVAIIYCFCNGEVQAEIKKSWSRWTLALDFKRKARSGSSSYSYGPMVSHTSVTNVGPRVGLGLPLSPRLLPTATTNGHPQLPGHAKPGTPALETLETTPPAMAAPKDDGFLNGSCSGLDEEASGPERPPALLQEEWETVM

endogenous PTH1R = biological target: T3, endogenous PTH1R (Homo sapiens, UniProt Q03431); test: Ligand-stimulated cAMP accumulation in SaOS-2 cells; type: cell-based; details: SaOS-2 cells
T3 construct: SaOS-2 cells expressing the wild-type PTH1R endogenously; endogenous in cells; host or cells: SaOS-2 human osteosarcoma cells
T3 sequence (Q03431 27-593): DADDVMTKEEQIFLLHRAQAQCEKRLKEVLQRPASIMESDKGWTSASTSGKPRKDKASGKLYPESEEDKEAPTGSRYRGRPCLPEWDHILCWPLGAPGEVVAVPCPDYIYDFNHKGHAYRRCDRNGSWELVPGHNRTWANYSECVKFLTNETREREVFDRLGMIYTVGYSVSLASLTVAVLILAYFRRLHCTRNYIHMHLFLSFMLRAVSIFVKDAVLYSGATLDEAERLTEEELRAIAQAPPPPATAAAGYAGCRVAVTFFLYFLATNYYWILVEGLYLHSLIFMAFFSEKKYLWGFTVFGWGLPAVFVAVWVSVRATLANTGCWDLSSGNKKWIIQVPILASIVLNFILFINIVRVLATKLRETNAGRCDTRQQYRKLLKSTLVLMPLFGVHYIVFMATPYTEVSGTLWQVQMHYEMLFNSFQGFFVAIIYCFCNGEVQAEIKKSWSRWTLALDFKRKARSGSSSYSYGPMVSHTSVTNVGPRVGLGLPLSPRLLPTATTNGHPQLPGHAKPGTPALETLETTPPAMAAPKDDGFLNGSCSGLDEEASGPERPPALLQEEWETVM
Protocol: (§1) DMEM, Trypsin/EDTA, and penicillin G/streptomycin and horse serum were from Gibco/BRL, Life Technologies, Gaithersburg, Md. LLC-PK, expressing the recombinant human PTH1R (HKrk-B7 cells) and SaOS-2 cells expressing the wild-type PTH1R endogenously were cultured in DMEM supplemented with 10% heat-inactivated fetal bovine serum, 100 U/ml penicillin, 100 μg/ml streptomycin, as previously described (Gardella, T. J., et al., J. Biol. Chem. 271:19888-19893 (1996); Fukayama, S., et al., Endocrinology 134:1851-1858 (1994)); both cell lines were maintained in a humidified atmosphere containing 95% air and 5% CO2. After seeding, medium was replaced daily, until cells were used for radioligand binding or cAMP accumulation assays.
Na^125I (specific activity: 2,000 Ci/mmol) was purchased from DuPont/NEN, Boston, Mass. Fetal bovine serum, 3-isobutyl-1-methyl-xanthine (IBMX), and BSA were from Sigma, St. Louis, Mo., and trifluoroacetic acid (TFA) was from Pierce, Rockford, Ill. Radiolabeled rPTH(1-34) and PTHrP(1-36) were prepared by the chloramine-T method, followed by HPLC purification using a 30-50% ACN/0.1% TFA gradient over 30 minutes; radioreceptor assays were performed in 24-well plates as previously described (Gardella, T. J., et al., J. Biol. Chem. 271:19888-19893 (1996); Fukayama, S. et al., Endocrinology 134:1851-1858 (1994)). In brief, each well (final volume 500 μl) contained binding buffer (BB; 50 mM Tris-HCl (pH 7.7), 100 mM NaCl, 5 mM KCl, 2 mM CaCl2, 5% heat-inactivated horse serum, and 0.5% heat-inactivated fetal bovine serum), the ^125I-labeled PTH or PTHrP analog (100,000 to 200,000 cpm) was incubated in the absence or presence of increasing concentrations of unlabeled peptides. […] The entire lysate was counted for γ-irradiation. Specific binding was determined after subtracting radioactivity bound in the presence of maximal concentrations of unlabeled competing peptide (10^−6 M). […] Data were analyzed and graphically illustrated using the graph-pad prism software package. […]

PTH1R [4] = biological target: T1, PTH1R; test: Inhibition of agonist-stimulated cAMP accumulation in SaOS-2 cells; type: cell-based; set-up: expressed in transfected cells; details: SaOS-2 cells (stated for both cell lines); agonists 0.15-0.3 nM
From the text: FIG. 4A-4F. Inhibition of agonist-stimulated cAMP accumulation in HKrk-B7 cells (FIG. 4A-4C) or SaOS-2 cells (FIG. 4D-4F). […] Data are expressed as % of half-maximal cAMP accumulation and represent the results (mean±SE) of at least three independent experiments.
Na^125I (specific activity: 2,000 Ci/mmol) was purchased from DuPont/NEN, Boston, Mass. Fetal bovine serum, 3-isobutyl-1-methyl-xanthine (IBMX), and BSA were from Sigma, St. Louis, Mo., and trifluoroacetic acid (TFA) was from Pierce, Rockford, Ill. Radiolabeled rPTH(1-34) and PTHrP(1-36) were prepared by the chloramine-T method, followed by HPLC purification using a 30-50% ACN/0.1% TFA gradient over 30 minutes; radioreceptor assays were performed in 24-well plates as previously described (Gardella, T. J., et al., J. Biol. Chem. 271:19888-19893 (1996); Fukayama, S. et al., Endocrinology 134:1851-1858 (1994)). […] The entire lysate was counted for γ-irradiation. Specific binding was determined after subtracting radioactivity bound in the presence of maximal concentrations of unlabeled competing peptide (10^−6 M). […] Data were analyzed and graphically illustrated using the graph-pad prism software package.

human PTH2 receptor = biological target: T4, human PTH2 receptor (Homo sapiens, UniProt P49190); test: Ligand-stimulated cAMP accumulation in hPR2-20 LLCPK1 cells; type: cell-based
T4 construct: expressed in transfected cells

PTH1R [5] = biological target: T1, PTH1R; test: Ligand-stimulated cAMP accumulation in HKrk-B7 cells; type: cell-based; set-up: expressed in transfected cells; details: HKrk-B7 cells
Protocol: as §1
Na^125I (specific activity: 2,000 Ci/mmol) was purchased from DuPont/NEN, Boston, Mass. Fetal bovine serum, 3-isobutyl-1-methyl-xanthine (IBMX), and BSA were from Sigma, St. Louis, Mo., and trifluoroacetic acid (TFA) was from Pierce, Rockford, Ill. Radiolabeled rPTH(1-34) and PTHrP(1-36) were prepared by the chloramine-T method, followed by HPLC purification using a 30-50% ACN/0.1% TFA gradient over 30 minutes; radioreceptor assays were performed in 24-well plates as previously described (Gardella, T. J., et al., J. Biol. Chem. 271:19888-19893 (1996); Fukayama, S. et al., Endocrinology 134:1851-1858 (1994)). In brief, each well (final volume 500 μl) contained binding buffer (BB; 50 mM Tris-HCl (pH 7.7), 100 mM NaCl, 5 mM KCl, 2 mM CaCl2, 5% heat-inactivated horse serum, and 0.5% heat-inactivated fetal bovine serum), the ^125I-labeled PTH or PTHrP analog (100,000 to 200,000 cpm) was incubated in the absence or presence of increasing concentrations of unlabeled peptides. After 4 h at 16° C., buffer was completely removed, the cells were rinsed with cold BB and lysed with 1 M NaOH. The entire lysate was counted for γ-irradiation. Specific binding was determined after subtracting radioactivity bound in the presence of maximal concentrations of unlabeled competing peptide (10^−6 M). Agonist-dependent stimulation of cAMP accumulation by HKrk-B7 and SaOS-2 cells (48-well plates; stimulation at room temperature for 45 minutes) and the subsequent measurement of cAMP by radioimmunoassay was performed as previously described (Gardella, T. J., et al., J. Biol. Chem. 271:19888-19893 (1996); Bergwitz, C., et al., Endocrinology 139:723-732 (1998)). Data were analyzed and graphically illustrated using the graph-pad prism software package.
The values for EC50 and Vmax (mean±SE) are derived from at least three independent experiments.

T4 sequence (P49190 25-550): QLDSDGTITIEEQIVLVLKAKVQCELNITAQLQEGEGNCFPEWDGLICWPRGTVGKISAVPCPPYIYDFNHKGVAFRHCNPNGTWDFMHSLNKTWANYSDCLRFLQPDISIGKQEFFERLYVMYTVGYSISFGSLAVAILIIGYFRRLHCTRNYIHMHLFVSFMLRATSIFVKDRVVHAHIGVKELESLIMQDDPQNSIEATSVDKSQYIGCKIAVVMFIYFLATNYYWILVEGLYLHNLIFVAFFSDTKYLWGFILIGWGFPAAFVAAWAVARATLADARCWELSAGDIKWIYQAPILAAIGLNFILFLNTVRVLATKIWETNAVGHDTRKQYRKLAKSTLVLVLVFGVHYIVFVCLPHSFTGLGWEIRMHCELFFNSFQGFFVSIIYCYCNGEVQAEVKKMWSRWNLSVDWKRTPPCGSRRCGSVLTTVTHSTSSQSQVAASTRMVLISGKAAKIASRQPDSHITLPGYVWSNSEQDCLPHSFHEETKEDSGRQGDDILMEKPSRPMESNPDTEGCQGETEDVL

Question: Which “agonist activity at the PTH1R (in words)” value (PTH1R [1]) does the source give for “TIP(7-39): truncated TIP39 of Hoare et al., excluded from the claims (DAAFRERARLLAALERRHWLNSYMHKLLVLDAP; Tuberoinfundibular peptide of 39 residues; UniProt P0C171 68-100, looked up, fragment)” here?
Answer: no agonist activity

Question: What about the “inhibition of radioligand binding to the PTH1R (in words)” value (PTH1R [2]) of the same compound?
Answer: efficiently inhibited radioligand binding

Question: With “[Leu^11, D-Trp^12, Trp^23, Tyr^36]PTHrP(7-36)amide (from UniProt P12272 43-72) (peptide)” as the compound, how does the IC50 of inhibition of agonist-stimulated cAMP accumulation, HKrk-B7 cells [3] read?
Answer: 100 nM

Question: With `CSCC[C@H](NC(=O)[C@H](Cc1ccc(O)cc1)NC(=O)[C@H](CO)NC(=O)[C@H](CC(N)=O)NC(=O)[C@H](CC(C)C)NC(=O)[C@H](Cc1c[nH]c2ccccc12)NC(=O)[C@H](Cc1c[nH]cn1)NC(=O)[C@H](CCCNC(=N)N)NC(=O)[C@H](CCCNC(=N)N)NC(=O)[C@H](CCC(=O)O)NC(=O)[C@H](CC(C)C)NC(=O)[C@H](C)NC(=O)[C@H](C)NC(=O)[C@H](CC(C)C)NC(=O)[C@H](CC(C)C)NC(=O)[C@H](CCCNC(=N)N)NC(=O)[C@H](C)NC(=O)[C@H](CCCNC(=N)N)NC(=O)[C@H](CCC(=O)O)NC(=O)[C@H](CCCNC(=N)N)NC(=O)[C@H](Cc1ccccc1)NC(=O)[C@H](C)NC(=O)[C@H](C)NC(=O)[C@H](CC(=O)O)NC(=O)[C@H](CC(=O)O)NC(=O)[C@H](C)NC(=O)[C@H](CC(C)C)NC(=O)[C@H](C)NC(=O)[C@H](CC(C)C)NC(=O)[C@@H](N)CO)C(=O)N[C@@H](Cc1c[nH]cn1)C(=O)N[C@@H](CCCCN)C(=O)N[C@@H](CC(C)C)C(=O)N[C@@H](CC(C)C)C(=O)N[C@H](C(=O)N[C@@H](CC(C)C)C(=O)N[C@@H](CC(=O)O)C(=O)N[C@@H](C)C(=O)N1CCC[C@H]1C(N)=O)C(C)C` [TIP(1-39), reference compound] as the compound, how does the “stimulation of cAMP accumulation (in words)” value (endogenous PTH1R) read?
Answer: failed to stimulate cAMP accumulation

Question: And the “inhibition of agonist actions (in words)” value (PTH1R [4])?
Answer: inhibited the actions of the three agonists

Question: What about the “maximum cAMP accumulation” value (human PTH2 receptor) of the same compound?
Answer: 136.5±4.9 pmol/well

Question: What about the “stimulation of cAMP accumulation at the PTH1R (in words)” value (PTH1R [5]) of the same compound?
Answer: failed to stimulate cAMP accumulation
